Assay results from US8168650B2, “Therapeutic uses of bicyclic ligands of sigma 2 receptor” (priority 2006, dated 2012).
Where two headings read alike, the source gives them in different places.

Legend:
σ2 receptor = target: T1, σ2 receptor (Rattus norvegicus, UniProt Q5U3Y7); experiment: σ2 receptor binding assay, [3H]DTG or [3H]RHM-1; conditions: for σ1/σ2 Ratio: Ki for σ1/Ki for σ2
T1 construct: from tissue; host or cells: rat liver membrane homogenates
T1 sequence (Q5U3Y7 1-176): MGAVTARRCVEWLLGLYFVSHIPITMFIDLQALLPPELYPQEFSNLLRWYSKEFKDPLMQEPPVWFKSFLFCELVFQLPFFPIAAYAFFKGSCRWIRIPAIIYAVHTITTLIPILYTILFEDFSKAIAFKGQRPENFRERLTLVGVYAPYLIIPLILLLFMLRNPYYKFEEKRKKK
Procedure: (§2) In vitro binding studies were conducted in order to determine the affinity of the target compounds at σ1 and σ2 receptors.
(§3) In this example, test compounds were dissolved in N,N-dimethylformamide (DMF), dimethylsulfoxide (DMSO) or ethanol and then diluted in 50 mM Tris-HCl, pH 7.4 buffer containing 150 mM NaCl and 100 mM EDTA. Membrane homogenates were made from guinea pig brain for σ1 binding assays and rat liver for σ2 binding assays. Membrane homogenates were diluted with 50 mM Tris-HCl buffer, pH 8.0, and incubated at 25° C. in a total volume of 150 μL in 96-well plates with the radioligand and test compounds with concentrations ranging from 0.1 nM to 10 μM. After incubation was completed, the reactions were terminated by the addition of 150 μL of ice-cold wash buffer (10 mM Tris-HCl, 150 mM NaCl, pH 7.4) using a 96-channel transfer pipette (Fisher Scientific, Pittsburgh, Pa.), and the samples harvested and filtered rapidly through 96-well fiberglass filter plate (Millipore, Billerica, Mass.) that had been presoaked with 100 μL of 50 mM Tris-HCl buffer, pH 8.0, for 1 h. Each filter was washed three times with 200 μL of ice cold wash buffer.
(§4) Ki values were calculated using the method of Cheng and Prusoff20 and represent mean values±SEM.

EMT-6 cells [1] = experiment: Cytotoxicity assay (MTS) in EMT-6 cells; assay type: cell-based, mouse
Procedure: Cell culture conditions. EMT-6 mouse breast tumor cells^39 were cultured in DMEM supplemented with 10% fetal bovine serum. The cells were maintained at 37° C. in a humidified incubator with a 5% CO2/95% air atmosphere.
In these experiments, a number of sigma ligands, having a wide range of affinities for σ1 and σ2 receptors, were evaluated for their efficacy to kill EMT-6 cells. […] Cells were incubated for 24 hours or 48 hours with various concentrations of the sigma ligands. Cytotoxicity and cell viability were quantified using the MTS assay.

[2] = tested on: MDA-MB-435 breast cancer cells; experiment: Cytotoxicity assay (MTS) in MDA-MB-435 cells; assay type: cell-based; conditions: Homo sapiens
Procedure: Cytotoxicity assay. The cytotoxic effect of the sigma ligands on EMT-6 cells was measured using the MTS colorimetric assay. MTS is bioreduced by cells into a colored formazan product with an absorbance at 490 nm. The quantity of the products is directly proportional to the number of viable cells in the culture. The MTS assay was performed using the CellTiter96Aqueous One Solution Assay (Promega, Madison, Wis.) according to the manufacturer's protocol. Briefly, EMT-6 cells were seeded at 2×10^3/well in 96-well plates on the day prior to treatment with the sigma ligand. Each sigma ligand was first dissolved in DMSO, and then serially diluted to get the desired concentration. The final concentration of DMSO in the cell culture medium was no more than 0.5%. After a 24 hour or 48 hour treatment with the various sigma ligands, cell death was assessed as follows. The CellTiter 96 AQueous One Solution Reagent was added to each well, and the plate was incubated for 2 hours at 37° C. The plate was then read at 490 nm in a Victor 3 plate reader (PerkinElmer Life and Analytical Sciences, Shelton, Conn.).
In these experiments, sigma ligands WC-II-26, SV119 and RHM-I-138 were evaluated for their efficacy to kill human MDA-MB-435 breast cancer cells. Cells were treated and analyzed as described for EMT-6 cells in Example 33. In these experiments cells were incubated for 24 hours or 48 hours with various concentrations of the sigma ligands.

EMT-6 cells [3] = experiment: TUNEL staining of DNA fragmentation in EMT-6 cells (microscopy, flow cytometry); assay type: cell-based, mouse; conditions: for TUNEL positive cells (flow cytometry): untreated control 2%; for DNA fragmentation, TUNEL staining in nuclei (fluorescence microscopy): EMT-6, WC-II-26 40 μM 48 h, SV119 100 μM 16 h, RHM-I-138 40 μM 16 h
Procedure: Detection of apoptosis by fluorescence microscopy. The DNA fragmentation occurring during apoptosis was detected by the TUNEL staining method using the in situ cell death detection kit purchased from Roche Applied Science (Indianapolis, Ind.). Briefly, after treatment of EMT-6 cells with the sigma ligands, cells were fixed for 1 hour with 4% paraformaldehyde in phosphate buffered saline at room temperature and permeabilized with 0.1% Triton X-100 for 2 minutes on ice. The cells were then labeled by incubation with the TUNEL reaction mixture for 1 hour at 37° C. and analyzed using a Nikon inverted fluorescence microscope with a FITC filter.
(§1) Detection and quantification of apoptosis by flow cytometry. The early stages of apoptosis are characterized by translocation of phosphatidyl serine (PS) from the inner surface of the plasma membrane to the outer surface of the membrane. Annexin V, a protein with high affinity for PS, was used to detect the externalization of PS. In these experiments cell death was quantified flow cytometrically using both an annexin V assay (Apoptosis Detection Kit, R &D Systems, Minneapolis, Minn.) and a TUNEL assay (Apodirect Kit, BD Biosciences Pharmingen, San Diego, Calif.). All of the data was collected and analyzed using a FACS scan flow cytometer (Becton Dickinson, Fullerton, Calif.).
To determine if the mechanism by which our σ2 selective ligands kill EMT-6 cells involves apoptosis, cells incubated with σ2 ligands were assayed by the TUNEL method. […] In these experiments, DNA fragmentation was detected by TUNEL staining and fluorescence microscopy (FIG. 6). Panel A: untreated cells. Panel B: Cells treated for 48 h with WC-II-26 (40 μM). Panel C: Cells treated for 16 h with SV119 (100 μM). Panel D: Cells treated for 16 h with RHM-I-138 (40 μM). […] At the designated times after treatment with WC-II-26, SV119 and RHM-I-138, TUNEL positive cells increased from 2% for the untreated control cells to 46%, 37% and 40%, respectively (FIG. 6B).

EMT-6 cells [4] = experiment: Annexin V labeling by flow cytometry in EMT-6 cells; assay type: cell-based, mouse
From the text: as §1
An early step in the induction of apoptosis is the membrane inversion of phosphatidyl serine (PS), which can be detected by the binding of annexin V to the cell surface. In early apoptosis, the cell membrane integrity is still intact, and the fluorescent marker, 7AAD, is excluded from the cell. Therefore, early apoptotic cells are annexin V positive and 7AAD negative. As apoptosis progresses, the cell membrane integrity is lost, and the cells become annexin V positive and 7AAD positive. EMT-6 cells treated with WC-II-26, SV119, and RHM-1-138 were analyzed by flow cytometry, and both early apoptotic death and late apoptotic death were detected after treatment with these three σ2 selective ligands (FIG. 7A). The percentage of EMT-6 cells with positive annexin V staining was 96.6±2.7%, 73.5±2.4%, and 48±6.4% after treatment with WCII-26, SV119 and RHM-I-138, respectively (FIG. 7B).

σ1 receptor = σ1 receptor (Cavia porcellus, UniProt Q60492); experiment: σ1 receptor binding assay, [3H](+)-pentazocine; conditions: as listed in Table 2
Procedure: as §2, §3, §4

[5] = Ki for σ2 (nM), as listed in Table 2
[6] = Ki σ2, inhibiting binding of [3H]DTG or [3H]RHM-1 to rat liver homogenates, mean ± SEM
[7] = Mus musculus, EMT6, 24 h, read-out: EC50 (μM, 24 hours), EMT-6, MTS assay, 24 hours
[8] = Mus musculus, EMT6, 48 h, read-out: EC50 (μM, 48 hours), EMT-6, MTS assay, 48 hours
[9] = read-out: IC50 (μM), MDA-MB-435, 24 hours
[10] = MDA-MB-435, 48 hours, read-out: IC50 (μM, 48 hours)

Sequence of σ1 receptor (Q60492 whole entry): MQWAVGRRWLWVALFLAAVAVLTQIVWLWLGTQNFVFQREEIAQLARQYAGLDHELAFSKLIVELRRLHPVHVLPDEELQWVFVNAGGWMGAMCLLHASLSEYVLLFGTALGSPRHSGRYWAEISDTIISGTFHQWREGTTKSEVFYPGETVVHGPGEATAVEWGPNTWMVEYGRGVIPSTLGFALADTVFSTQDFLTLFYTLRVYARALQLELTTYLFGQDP

SMILES | σ1/σ2 Ratio (σ2 receptor) | Ki (σ2 receptor; [5]) [nM] | Ki (σ2 receptor; [6]) [nM] | EC50 (EMT-6 cells [1]; [7]) [µM] | EC50 (EMT-6 cells [1]; [8]) [µM] | EC50 (EMT-6 cells [1]; read-out: EC50 (μM, 48 hours), EMT-6, MTS assay, 48 hours) [µM] | IC50 [2, 9] [µM] | IC50 [2, 10] [µM] | TUNEL positive cells (flow cytometry) (EMT-6 cells [3]; EMT-6, 40 μM, 16 h) [%] | DNA fragmentation, TUNEL staining in nuclei (fluorescence microscopy) (EMT-6 cells [3]) | percentage of EMT-6 cells with positive annexin V staining (EMT-6 cells [4]; 40 μM, 16 h) [%] | Ki (σ1 receptor; read-out: Ki for σ1) [nM] | TUNEL positive cells (flow cytometry) (EMT-6 cells [3]; EMT-6, 100 μM, 16 h) [%] | percentage of EMT-6 cells with positive annexin V staining (EMT-6 cells [4]; 100 μM, 16 h) [%] | Ki (σ1 receptor; Ki for σ1 (nM)) [nM] | TUNEL positive cells (flow cytometry) (EMT-6 cells [3]; EMT-6, 40 μM, 48 h) [%] | percentage of EMT-6 cells with positive annexin V staining (EMT-6 cells [4]; 40 μM, 48 h) [%]
O[C@@H](CN1C2CCC1CC(c1ccccc1)C2)c1cccc(Br)c1 (some centres unmarked) [RHM-I-138] | 44 | 12.3 | 12.3 | 32.5 ± 3.5 | 16 | 16.5 ± 2.1 | 26.7 ± 4.3 | 19 ± 1.8 | 40 | positive TUNEL staining | 48±6.4 | 544 | – | – | – | – | –
COc1ccc(C)cc1NC(=O)OC1CC2CCCC(C1)N2CCCCCCN (centres unmarked) [SV119] | – | 19.9 | – | 16 ± 1.4 | 11 | – | 36.7 ± 3.3 | 20.6 ± 2.7 | – | positive TUNEL staining | – | – | 37 | 73.5±2.4 | 1450 | – | –
COc1ccc(C)cc1NC(=O)O[C@H]1C[C@H]2CCC[C@@H](C1)N2Cc1ccc(N(C)C)cc1 [WC-II-26] | 511 | 10.8 | 10.9 | 42.5 ± 3.5 | 12.5 | – | 51.6 ± 6 | 43.2 ± 2 | – | positive TUNEL staining | – | – | – | – | 5570 | 46 | 96.6±2.7
